Data: publication PMC7663772, “Optimizing the Profile of [^99mTc]Tc–NT(7–13) Tracers in Pancreatic Cancer Models by Means of Protease Inhibitors” (International Journal of Molecular Sciences, 2020)

Key:
AsPC-1 cells = assay: NTS1R-specific cell uptake/internalization in AsPC-1 cells; assay type: cell-based, human; settings: for specific cell uptake: AsPC-1 cells, 1 h incubation at 37 °C, NTS1R-specific (non-specific with 1 μM NT subtracted)
Procedure: (§1) The human pancreatic adenocarcinoma AsPC-1, PANC-1, MiaCapa-2, and Capan-1 cell lines were obtained from LGC Standards GmbH (Wesel, Germany). All culture reagents were purchased from Gibco BRL, Life Technologies (Grand Island, NY, USA) or from Biochrom KG Seromed (Berlin, Germany). Cells were grown in Roswell Park Memorial Institute-1640 Medium (RPMI-1640; AsPC-1 cells) or Dulbecco’s Modified Eagle’s Medium (DMEM; PANC-1, MiaCapa-2, and Capan-1 cells) with GlutaMAX-I, supplemented with 10% (v/v) fetal bovine serum (FBS), 100 U/mL penicillin, and 100 μg/mL streptomycin, and kept in a controlled humidified air containing 5% CO2 at 37 °C. Splitting of cells with a ratio of 1:3 to 1:5 was performed when approaching confluency, using a trypsin/EDTA (0.05%/0.02% w/v) solution.
For internalization assays, AsPC-1, PANC-1, MiaCapa-2, and Capan-1 cells were seeded in six-well plates (≈1 × 10^6 cells per well) the day before the experiment. Cells were rinsed twice with ice-cold internalization medium (IM; culture medium supplemented by 1% (v/v) FBS), and then fresh IM was added (1.2 mL) at 37 °C, followed by test radiopeptide (250 fmol total peptide in 150 μL IPBS (0.5% w/v BSA–PBS,) 100,000–200,000 cpm). Non-specific internalization was determined by a parallel triplicate series containing 1 μM NT. After incubation at 37 °C, the plates were placed on ice, the medium was collected, and the plates were washed with IPBS (1 mL). Membrane-bound fractions were collected by incubating the cells 2 × 5 min in acid-wash solution (2 × 600 µL; 50 mM glycine buffer pH 2.8, 0.1 M NaCl) at room temperature. […] Sample radioactivity was measured on the gamma counter, and the percentage of specific internalized and membrane-bound fractions were calculated with Microsoft Excel (after subtracting the non-specific from the overall internalized and membrane-bound counts). Results represent the specific mean internalized ± SD of total added radioactivity per well from three experiments performed in triplicate. […]

[1] = mouse, in vivo; cited from earlier work
PANC-1 cells = assay: NTS1R-specific cell uptake/internalization in PANC-1 cells; assay type: cell-based, human
Procedure: as §1, with “Splitting of cells with a ratio of 1:3 to 1:5 was performed when approaching confluency, using a trypsin/EDTA (0.05%/0.02% w/v) solution.” left out
(§2) For internalization assays, AsPC-1, PANC-1, MiaCapa-2, and Capan-1 cells were seeded in six-well plates (≈1 × 10^6 cells per well) the day before the experiment. […] Non-specific internalization was determined by a parallel triplicate series containing 1 μM NT. […] Sample radioactivity was measured on the gamma counter, and the percentage of specific internalized and membrane-bound fractions were calculated with Microsoft Excel (after subtracting the non-specific from the overall internalized and membrane-bound counts). Results represent the specific mean internalized ± SD of total added radioactivity per well from three experiments performed in triplicate. […]

MiaCapa-2 cells = assay: NTS1R-specific cell uptake/internalization in MiaCapa-2 cells; assay type: cell-based, human; settings: 1 h incubation at 37 °C
Procedure: as §1, with “Splitting of cells with a ratio of 1:3 to 1:5 was performed when approaching confluency, using a trypsin/EDTA (0.05%/0.02% w/v) solution.” left out
as §2

Capan-1 cells = assay: NTS1R-specific cell uptake/internalization in Capan-1 cells; assay type: cell-based, human; settings: 1 h incubation at 37 °C
Procedure: as §1, with “Splitting of cells with a ratio of 1:3 to 1:5 was performed when approaching confluency, using a trypsin/EDTA (0.05%/0.02% w/v) solution.” left out
as §2

WiDr cells = system: WiDr cells; design: method as in PMID 32526874; settings: 1 h incubation ref 39; cited from earlier work
AsPC-1 xenografts = settings: mouse, in vivo; cited from earlier work
NTS1R [2] = system: NTS1R; design: method as in PMID 17594090; settings: read-out: receptor affinity (IC50); cited from earlier work
NTS1R [3] = system: NTS1R; design: method as in PMID 21883013; settings: small number of patients ref 30; cited from earlier work
[4] = mouse, 2 h; cited from earlier work

Substance: [^99mTc]Tc–[N4–βAla^7,Dab^9]NT(7–13) [[^99mTc]Tc–DT5]
- specific cell uptake (AsPC-1 cells): 8.4% ± 0.8%
- renal values in mice [1]: high renal values

Substance: [^99mTc]Tc–[N4–Gly^7]NT(7–13) [[^99mTc]Tc–DT1]
- I, internalized fraction, specific (AsPC-1 cells; AsPC-1, 1 h incubation, of total-added activity): 14.11±2.28
- specific cell uptake (AsPC-1 cells): 15.2% ± 2.6%
- I, internalized fraction, specific (PANC-1 cells; PANC-1, 1 h incubation, of total-added activity): 7.30±2.41
- specific cell uptake (PANC-1 cells; PANC-1 cells, 1 h incubation at 37 °C, NTS1R-specific): 8.1% ± 2.8%
- specific cell uptake (MiaCapa-2 cells): 2.7% ± 0.3%
- specific cell uptake (Capan-1 cells): 0.4% ± 0.1%
- specific cell binding (WiDr cells): 10.1 ± 2.3%

Substance: [^68Ga]Ga–NODAGA–Lys(Cy5**)–AEEAc–[Me–Arg^8,Tle^12]NT(7−13)
- kidney values (AsPC-1 xenografts): 20 % IA/g

Substance: Ac–Lys(1,4,7,10-tetraazacyclododecane–1,4,7,10-tetraacetic acid)–Pro–Me–Arg–Arg–Pro–Tyr–Tle–Leu–OH [[^68Ga]Ga–DOTA–NT–20.3]
- kidney values (AsPC-1 xenografts): about the same values

Substance: [^99mTc]Tc–[N4–βAla^7,Dab^9,Tle]NT(7–13) [[^99mTc]Tc–DT6]
- IC50 (NTS1R [2]): 0.08 ± 0.02 nM
- specific cell binding (WiDr cells): 1.0 ± 0.4%
- NTS1R targeting of tumor lesions in patients (NTS1R [3]): poor NTS1R targeting of tumor lesions
- stability in mice plasma, intact [4]: > 90%
